Measurements as given in ChEMBL document CHEMBL1158599, “(2S,4S)-1-[2-(1,1-dimethyl-3-oxo-3-pyrrolidin-1-yl-propylamino)acetyl]-4-fluoro-pyrrolidine-2-carbonitrile: a potent, selective, and orally bioavailable dipeptide-derived inhibitor of dipeptidyl peptidase IV” (Bioorg Med Chem Lett, 2010).

Assays:
Rattus norvegicus [1] = organism: Rattus norvegicus; assay: animal or person; settings: Plasma, po, 0.5 h, read-out: INH
Rattus norvegicus [2] = organism: Rattus norvegicus; assay: animal or person; settings: Plasma, po, 8 h, read-out: INH
Dipeptidyl peptidase 9 [3] = target: T1, Dipeptidyl peptidase 9 (Homo sapiens, UniProt Q86TI2); assay: Inhibition of DPP9
Target sequence in this assay (Q86TI2 whole entry): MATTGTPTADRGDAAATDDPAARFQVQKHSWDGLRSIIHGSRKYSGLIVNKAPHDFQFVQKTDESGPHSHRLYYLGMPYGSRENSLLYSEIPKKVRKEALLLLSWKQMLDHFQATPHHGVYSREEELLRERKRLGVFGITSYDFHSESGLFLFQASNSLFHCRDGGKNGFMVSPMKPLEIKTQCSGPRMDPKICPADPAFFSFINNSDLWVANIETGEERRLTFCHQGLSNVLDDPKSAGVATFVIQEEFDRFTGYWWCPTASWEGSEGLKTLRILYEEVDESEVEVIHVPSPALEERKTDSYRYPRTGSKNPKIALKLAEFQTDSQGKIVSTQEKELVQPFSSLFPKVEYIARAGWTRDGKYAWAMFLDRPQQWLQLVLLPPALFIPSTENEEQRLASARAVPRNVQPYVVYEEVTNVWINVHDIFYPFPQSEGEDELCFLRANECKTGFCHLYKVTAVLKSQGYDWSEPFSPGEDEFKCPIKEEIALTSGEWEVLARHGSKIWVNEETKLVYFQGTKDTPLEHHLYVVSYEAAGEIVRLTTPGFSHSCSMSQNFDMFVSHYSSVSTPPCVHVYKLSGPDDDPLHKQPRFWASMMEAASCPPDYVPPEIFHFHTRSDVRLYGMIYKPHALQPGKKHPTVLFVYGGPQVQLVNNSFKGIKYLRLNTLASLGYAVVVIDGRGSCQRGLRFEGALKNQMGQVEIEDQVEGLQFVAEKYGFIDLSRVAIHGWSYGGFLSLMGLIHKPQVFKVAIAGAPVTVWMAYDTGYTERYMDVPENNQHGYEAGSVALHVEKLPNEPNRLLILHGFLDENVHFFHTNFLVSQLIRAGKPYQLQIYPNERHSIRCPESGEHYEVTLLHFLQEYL

Mus musculus [4] = organism: Mus musculus; assay: animal or person; settings: Plasma, po, 4 h, read-out: INH
Dipeptidyl peptidase 8 = Dipeptidyl peptidase 8 (Homo sapiens, UniProt Q6V1X1)
Dipeptidyl peptidase 4 [5] = target: T2, Dipeptidyl peptidase 4 (Homo sapiens, UniProt P27487)
Dipeptidyl peptidase 9 [6] = target: T1, Dipeptidyl peptidase 9; assay: Inhibition of DPP9 at 20 uM
Target sequence in this assay (Q86TI2 2-863 limits assumed): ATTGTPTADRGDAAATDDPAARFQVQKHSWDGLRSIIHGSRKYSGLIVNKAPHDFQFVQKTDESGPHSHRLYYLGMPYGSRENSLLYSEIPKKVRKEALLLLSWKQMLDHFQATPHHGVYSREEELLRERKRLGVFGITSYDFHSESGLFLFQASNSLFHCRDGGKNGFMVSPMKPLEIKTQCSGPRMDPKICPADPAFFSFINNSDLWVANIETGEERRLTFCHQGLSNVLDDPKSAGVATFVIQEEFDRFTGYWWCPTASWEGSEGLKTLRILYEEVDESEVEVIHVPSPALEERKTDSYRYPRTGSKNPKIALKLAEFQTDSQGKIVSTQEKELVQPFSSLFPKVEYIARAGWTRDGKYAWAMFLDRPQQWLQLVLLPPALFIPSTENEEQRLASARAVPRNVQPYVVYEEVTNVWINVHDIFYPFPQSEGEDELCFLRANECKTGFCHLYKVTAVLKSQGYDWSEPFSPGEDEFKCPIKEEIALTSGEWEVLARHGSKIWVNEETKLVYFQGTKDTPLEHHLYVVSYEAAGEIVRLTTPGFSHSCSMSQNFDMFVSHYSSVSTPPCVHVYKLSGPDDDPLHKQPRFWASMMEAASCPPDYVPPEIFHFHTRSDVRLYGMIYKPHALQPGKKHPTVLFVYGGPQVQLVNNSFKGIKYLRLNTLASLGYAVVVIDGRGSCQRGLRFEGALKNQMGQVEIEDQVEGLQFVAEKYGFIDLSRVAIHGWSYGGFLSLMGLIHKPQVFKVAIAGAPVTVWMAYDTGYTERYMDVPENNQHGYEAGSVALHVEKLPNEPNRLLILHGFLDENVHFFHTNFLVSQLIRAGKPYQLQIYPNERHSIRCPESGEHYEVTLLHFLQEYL

Dipeptidyl peptidase 2 = Dipeptidyl peptidase 2 (Homo sapiens, UniProt Q9UHL4); assay: Inhibition of DPP2
Prolyl endopeptidase FAP = target: T3, Prolyl endopeptidase FAP (Homo sapiens, UniProt Q12884); assay: Inhibition of FAP
T3 sequence (Q12884 whole entry): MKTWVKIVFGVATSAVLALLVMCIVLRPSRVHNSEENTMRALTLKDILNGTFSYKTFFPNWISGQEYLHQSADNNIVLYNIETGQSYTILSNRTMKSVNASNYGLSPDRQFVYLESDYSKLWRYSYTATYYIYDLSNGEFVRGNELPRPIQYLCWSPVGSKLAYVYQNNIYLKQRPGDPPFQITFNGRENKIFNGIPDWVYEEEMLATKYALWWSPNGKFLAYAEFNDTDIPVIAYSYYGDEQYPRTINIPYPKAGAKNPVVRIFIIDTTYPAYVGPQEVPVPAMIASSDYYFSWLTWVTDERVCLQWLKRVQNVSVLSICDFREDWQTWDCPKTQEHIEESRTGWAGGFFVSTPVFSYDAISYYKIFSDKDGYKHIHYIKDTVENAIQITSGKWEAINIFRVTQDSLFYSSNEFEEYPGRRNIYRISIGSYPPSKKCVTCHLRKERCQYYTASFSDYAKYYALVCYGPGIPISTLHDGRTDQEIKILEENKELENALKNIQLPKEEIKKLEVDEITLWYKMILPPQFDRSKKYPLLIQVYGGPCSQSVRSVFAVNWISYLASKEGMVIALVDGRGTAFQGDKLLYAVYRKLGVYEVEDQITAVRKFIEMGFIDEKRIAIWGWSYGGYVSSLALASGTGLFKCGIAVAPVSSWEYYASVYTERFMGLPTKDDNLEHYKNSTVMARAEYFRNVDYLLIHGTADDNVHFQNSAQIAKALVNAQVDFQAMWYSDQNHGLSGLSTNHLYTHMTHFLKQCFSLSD

Dipeptidyl peptidase 4 [7] = target: T2, Dipeptidyl peptidase 4; remark: listed apart in the source
Dipeptidyl peptidase 4 [8] = target: T2, Dipeptidyl peptidase 4; remark: listed apart in the source
[9] = target: Cathepsin B (Homo sapiens) (UniProt P07858); assay: Inhibition of cathepsin B at 10 uM
[10] = target: T4, Pro-cathepsin H (Homo sapiens) (UniProt P09668); assay: Inhibition of cathepsin H at 10 uM
T4 sequence (whole entry): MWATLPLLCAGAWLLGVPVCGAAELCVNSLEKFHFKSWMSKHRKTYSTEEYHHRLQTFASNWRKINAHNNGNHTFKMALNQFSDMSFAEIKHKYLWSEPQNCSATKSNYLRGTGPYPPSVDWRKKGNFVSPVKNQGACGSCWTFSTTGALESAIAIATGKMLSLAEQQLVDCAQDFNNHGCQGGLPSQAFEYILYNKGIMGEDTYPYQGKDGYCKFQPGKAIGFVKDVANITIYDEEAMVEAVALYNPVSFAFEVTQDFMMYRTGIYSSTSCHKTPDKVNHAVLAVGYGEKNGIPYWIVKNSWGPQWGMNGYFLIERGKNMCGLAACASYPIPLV

[11] = target: Voltage-gated inwardly rectifying potassium channel KCNH2 (Homo sapiens, UniProt Q12809); assay: Inhibition of human ERG
[12] = Oral bioavailability in dog; assay type: ADME, organism-based, Canis lupus familiaris; settings: in vivo
[13] = target: Beta-secretase 1 (Homo sapiens) (UniProt P56817); assay: Inhibition of beta secretase at 10 uM
[14] = Oral bioavailability in rat; assay type: ADME, organism-based; settings: in vivo
[15] = target: Prothrombin (Homo sapiens) (UniProt P00734); assay: Inhibition of thrombin at 10 uM
[16] = Inhibition of L-type calcium channel; settings: concentration not given here
[17] = target: T5, Caspase-10 (Homo sapiens) (UniProt Q92851); assay: Inhibition of caspase 10 at 10 uM
T5 sequence (whole entry): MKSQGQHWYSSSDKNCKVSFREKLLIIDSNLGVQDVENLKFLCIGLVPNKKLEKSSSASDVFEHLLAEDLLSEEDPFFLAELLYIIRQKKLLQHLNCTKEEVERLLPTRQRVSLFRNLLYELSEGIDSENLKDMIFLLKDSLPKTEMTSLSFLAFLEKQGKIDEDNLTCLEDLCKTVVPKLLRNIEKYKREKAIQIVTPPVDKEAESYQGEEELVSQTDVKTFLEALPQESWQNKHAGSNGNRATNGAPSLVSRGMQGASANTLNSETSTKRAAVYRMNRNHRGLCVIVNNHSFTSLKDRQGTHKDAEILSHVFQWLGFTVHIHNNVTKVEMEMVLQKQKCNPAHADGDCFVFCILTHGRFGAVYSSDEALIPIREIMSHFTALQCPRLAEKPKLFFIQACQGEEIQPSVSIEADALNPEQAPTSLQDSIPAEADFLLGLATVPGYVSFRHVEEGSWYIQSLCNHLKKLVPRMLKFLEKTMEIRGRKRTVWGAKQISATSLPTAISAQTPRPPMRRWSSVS

[18] = target: Coagulation factor X (Homo sapiens) (UniProt P00742); assay: Inhibition of factor 10a at 10 uM
Caspase-1 (Homo sapiens) = target: T6, Caspase-1 (Homo sapiens) (UniProt P29466); assay: Inhibition of caspase1 at 10 uM
T6 sequence (whole entry): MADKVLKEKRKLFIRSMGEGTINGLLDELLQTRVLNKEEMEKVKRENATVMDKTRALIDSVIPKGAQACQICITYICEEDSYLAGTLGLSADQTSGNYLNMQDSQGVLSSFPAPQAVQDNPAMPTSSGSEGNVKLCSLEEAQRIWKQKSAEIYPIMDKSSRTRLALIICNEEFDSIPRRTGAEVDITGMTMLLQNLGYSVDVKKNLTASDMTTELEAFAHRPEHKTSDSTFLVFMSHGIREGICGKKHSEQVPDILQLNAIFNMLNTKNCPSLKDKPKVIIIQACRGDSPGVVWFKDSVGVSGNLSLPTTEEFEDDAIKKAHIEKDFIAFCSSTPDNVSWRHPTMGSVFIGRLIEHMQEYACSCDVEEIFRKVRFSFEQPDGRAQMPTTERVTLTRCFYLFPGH

Mus musculus [19] = assay: Antihyperglycemic activity in C57BL/6J mouse assessed as reduction in blood glucose AUC at 3 mg/kg, po administered 30 mins before glucose challenge; assay type: functional; set-up: scale not given: the % may be the effect or the level left
[20] = Inhibition of sodium channel site 2; settings: concentration not given here
[21] = Inhibition of trypsin at 10 uM

Sequence of Dipeptidyl peptidase 8 (Q6V1X1 whole entry): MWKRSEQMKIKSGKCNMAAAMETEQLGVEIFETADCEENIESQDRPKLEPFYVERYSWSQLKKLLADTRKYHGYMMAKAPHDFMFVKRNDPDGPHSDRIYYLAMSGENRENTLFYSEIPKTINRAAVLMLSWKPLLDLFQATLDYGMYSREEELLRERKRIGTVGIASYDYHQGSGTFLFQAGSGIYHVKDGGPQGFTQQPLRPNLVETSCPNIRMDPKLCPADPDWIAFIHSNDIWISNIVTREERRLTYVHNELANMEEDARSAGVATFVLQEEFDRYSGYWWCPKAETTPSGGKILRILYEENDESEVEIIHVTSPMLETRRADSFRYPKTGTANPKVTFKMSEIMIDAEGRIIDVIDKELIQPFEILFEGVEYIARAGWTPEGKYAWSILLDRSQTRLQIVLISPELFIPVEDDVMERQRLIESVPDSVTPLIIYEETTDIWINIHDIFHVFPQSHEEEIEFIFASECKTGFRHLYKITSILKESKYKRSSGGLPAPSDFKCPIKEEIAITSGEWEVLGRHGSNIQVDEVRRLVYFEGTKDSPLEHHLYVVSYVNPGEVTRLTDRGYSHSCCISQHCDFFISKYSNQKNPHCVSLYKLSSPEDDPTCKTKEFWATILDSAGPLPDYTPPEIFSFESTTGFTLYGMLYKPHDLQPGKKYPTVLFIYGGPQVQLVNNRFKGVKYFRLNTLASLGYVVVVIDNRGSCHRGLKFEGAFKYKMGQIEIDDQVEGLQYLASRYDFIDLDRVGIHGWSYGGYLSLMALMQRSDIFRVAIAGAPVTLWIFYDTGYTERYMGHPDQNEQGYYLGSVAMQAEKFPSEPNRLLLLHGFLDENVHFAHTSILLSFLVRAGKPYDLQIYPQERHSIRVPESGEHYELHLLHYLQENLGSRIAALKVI
T2 sequence (P27487 whole entry): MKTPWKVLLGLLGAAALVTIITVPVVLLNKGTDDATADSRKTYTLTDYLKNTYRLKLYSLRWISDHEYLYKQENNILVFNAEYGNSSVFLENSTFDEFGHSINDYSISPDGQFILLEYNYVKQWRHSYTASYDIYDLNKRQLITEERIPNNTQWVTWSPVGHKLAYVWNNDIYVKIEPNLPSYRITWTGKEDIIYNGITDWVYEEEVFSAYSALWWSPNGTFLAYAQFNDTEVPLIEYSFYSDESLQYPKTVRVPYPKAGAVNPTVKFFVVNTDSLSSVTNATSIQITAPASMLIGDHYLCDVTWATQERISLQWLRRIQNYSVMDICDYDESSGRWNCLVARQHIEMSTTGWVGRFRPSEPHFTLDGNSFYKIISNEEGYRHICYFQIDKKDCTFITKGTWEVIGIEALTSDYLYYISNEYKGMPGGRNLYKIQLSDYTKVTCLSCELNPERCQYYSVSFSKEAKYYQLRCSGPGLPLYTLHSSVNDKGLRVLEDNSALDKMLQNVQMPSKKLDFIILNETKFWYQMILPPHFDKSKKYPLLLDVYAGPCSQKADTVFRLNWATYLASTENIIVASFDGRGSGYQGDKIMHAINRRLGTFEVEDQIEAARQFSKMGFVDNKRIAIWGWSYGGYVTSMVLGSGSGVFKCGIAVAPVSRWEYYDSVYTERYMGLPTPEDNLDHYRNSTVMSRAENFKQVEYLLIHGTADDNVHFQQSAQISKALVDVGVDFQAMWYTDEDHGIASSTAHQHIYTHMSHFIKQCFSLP
Sequence of Coagulation factor X (Homo sapiens) (P00742 41-179 limits assumed): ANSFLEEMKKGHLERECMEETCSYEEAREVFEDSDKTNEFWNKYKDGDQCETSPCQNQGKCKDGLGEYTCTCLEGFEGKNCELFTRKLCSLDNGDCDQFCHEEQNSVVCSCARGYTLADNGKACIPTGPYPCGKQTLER
Sequence of Coagulation factor X (Homo sapiens) (P00742 235-488 limits assumed): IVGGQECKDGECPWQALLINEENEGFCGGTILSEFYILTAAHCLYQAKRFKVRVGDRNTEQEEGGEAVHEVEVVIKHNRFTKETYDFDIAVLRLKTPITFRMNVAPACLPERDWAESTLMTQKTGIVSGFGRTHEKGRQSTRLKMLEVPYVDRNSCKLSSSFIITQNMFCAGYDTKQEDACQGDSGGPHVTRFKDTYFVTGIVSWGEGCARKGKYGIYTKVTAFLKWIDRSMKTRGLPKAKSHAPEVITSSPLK
Sequence of Voltage-gated inwardly rectifying potassium channel KCNH2 (Q12809 whole entry): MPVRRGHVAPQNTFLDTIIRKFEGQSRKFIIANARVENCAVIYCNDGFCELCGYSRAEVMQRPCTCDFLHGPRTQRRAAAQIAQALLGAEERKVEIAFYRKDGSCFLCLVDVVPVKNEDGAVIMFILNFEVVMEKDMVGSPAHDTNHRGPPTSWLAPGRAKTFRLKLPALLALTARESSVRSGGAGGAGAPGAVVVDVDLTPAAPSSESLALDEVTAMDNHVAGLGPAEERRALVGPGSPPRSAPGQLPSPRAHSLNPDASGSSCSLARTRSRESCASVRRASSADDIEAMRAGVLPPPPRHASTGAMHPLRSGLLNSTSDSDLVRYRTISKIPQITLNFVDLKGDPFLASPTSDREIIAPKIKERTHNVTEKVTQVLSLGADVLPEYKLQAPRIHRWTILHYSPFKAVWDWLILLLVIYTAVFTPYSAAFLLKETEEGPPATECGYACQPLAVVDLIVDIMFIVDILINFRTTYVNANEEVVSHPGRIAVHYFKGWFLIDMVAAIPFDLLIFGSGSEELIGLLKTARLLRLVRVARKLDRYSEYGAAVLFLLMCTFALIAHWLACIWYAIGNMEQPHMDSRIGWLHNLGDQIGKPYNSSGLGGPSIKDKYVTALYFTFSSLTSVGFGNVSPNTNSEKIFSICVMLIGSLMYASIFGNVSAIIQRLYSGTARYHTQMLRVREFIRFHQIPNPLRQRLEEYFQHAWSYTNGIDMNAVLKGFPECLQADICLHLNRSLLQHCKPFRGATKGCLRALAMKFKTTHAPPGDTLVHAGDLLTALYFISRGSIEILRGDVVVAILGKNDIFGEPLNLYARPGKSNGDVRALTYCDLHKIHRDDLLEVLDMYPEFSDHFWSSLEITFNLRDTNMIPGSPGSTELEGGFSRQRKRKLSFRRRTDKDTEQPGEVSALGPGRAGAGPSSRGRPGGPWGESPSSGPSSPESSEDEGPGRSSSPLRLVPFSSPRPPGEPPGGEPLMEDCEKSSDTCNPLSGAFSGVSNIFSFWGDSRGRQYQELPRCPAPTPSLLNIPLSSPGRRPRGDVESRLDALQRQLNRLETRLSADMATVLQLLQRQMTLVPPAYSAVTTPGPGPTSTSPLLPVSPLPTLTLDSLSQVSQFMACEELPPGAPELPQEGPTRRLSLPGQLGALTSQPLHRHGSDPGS

| Compound | inhibition in vivo at 3 mg/kg (Rattus norvegicus [1]) [%] | inhibition in vivo at 3 mg/kg (Rattus norvegicus [2]) [%] | IC50 (Dipeptidyl peptidase 9 [3]) [nM] | IC50 (Dipeptidyl peptidase 8) [nM] | IC50 (Dipeptidyl peptidase 4 [5]) [nM] | further results |
| --- | --- | --- | --- | --- | --- | --- |
| N#C[C@@H]1CCCN1C(=O)CNC12CC3CC(CC(O)(C3)C1)C2 [VILDAGLIPTIN] | 84 | 73 |  |  |  |  |
| CC(C)(CC(=O)N1Cc2ccccc2C1)NCC(=O)N1CCC[C@H]1C#N |  |  | > 100000 |  |  | inhibition in vivo at 18 mg/kg (Mus musculus [4]): > 80% |
| CC(C)(CC(=O)N1CC[C@@H](F)C1)NCC(=O)N1C[C@@H](F)C[C@H]1C#N |  |  | > 20000 | > 20000 |  |  |
| CN1CCN(C(=O)CC(C)(C)NCC(=O)N2C[C@@H](F)C[C@H]2C#N)CC1 |  |  |  | > 20000 | 93 | inhibition (Dipeptidyl peptidase 9 [6]): 86% |
| CC(C)(CC(=O)N1CCCCCC1)NCC(=O)N1C[C@@H](F)C[C@H]1C#N |  |  | > 20000 | > 20000 | 160 |  |
| COc1ccc(NC(=O)CC(C)(C)NCC(=O)N2CCC[C@H]2C#N)cc1OC |  |  | > 20000 | > 50000 |  | IC50 (Dipeptidyl peptidase 2): > 20000 nM; IC50 (Prolyl endopeptidase FAP): > 50000 nM |
| CC(C)(CC(=O)N1CCSC1)NCC(=O)N1C[C@@H](F)C[C@H]1C#N | 77 | 56 | > 20000 | > 20000 | 27 |  |
| COc1ccc(NC(=O)CC(C)(C)NCC(=O)N2C[C@@H](F)C[C@H]2C#N)cc1OC | 86 | 18 |  | > 20000 | 27 | inhibition (Dipeptidyl peptidase 9 [6]): 73% |
| CC(C)(CC(=O)N1CC[C@@H](O)C1)NCC(=O)N1C[C@@H](F)C[C@H]1C#N | 63 | 15 | > 20000 | > 20000 | 30 | IC50 (Dipeptidyl peptidase 4 [7]): 21 nM; IC50 (Dipeptidyl peptidase 4 [8]): 23 nM |
| CC(C)(CC(=O)N1CCC[C@H]1CO)NCC(=O)N1C[C@@H](F)C[C@H]1C#N |  |  | > 20000 | > 20000 | 24 |  |
| CC(C)(CC(=O)N1CCCC1)NCC(=O)N1C[C@@H](F)C[C@H]1C#N [DBPR-108] | 82 | 70 | > 50000 | > 100000 | 15 | IC50 (Dipeptidyl peptidase 4 [7]): 5 nM; inhibition [9]: -10%; IC50 (Dipeptidyl peptidase 4 [8]): 10 nM; inhibition [10]: 0%; inhibition (INH) [11]: -6%; bioavailability [12]: 68%; inhibition [13]: 3%; bioavailability [14]: 19%; inhibition [15]: -7%; inhibition [16]: -9%; inhibition [17]: 8%; inhibition [18]: 2%; inhibition (Caspase-1 (Homo sapiens)): 23%; Activity (Mus musculus [19]): 67%; inhibition [20]: 1%; inhibition [21]: 0% |
| N[C@@H](CC(=O)N1CCn2c(nnc2C(F)(F)F)C1)Cc1cc(F)c(F)cc1F [SITAGLIPTIN] | 30 | 20 |  |  |  |  |
| COc1ccc(NC(=O)CC(C)(C)NCC(=O)N2C[C@@H](F)C[C@H]2C#N)nc1 | 88 | 41 |  | > 20000 | 19 | IC50 (Dipeptidyl peptidase 4 [7]): 18 nM; inhibition (Dipeptidyl peptidase 9 [6]): 61% |
| CC(C)(CC(=O)Nc1ccccn1)NCC(=O)N1C[C@@H](F)C[C@H]1C#N | 87 | 31 | > 20000 | > 20000 | 19 | IC50 (Dipeptidyl peptidase 4 [7]): 19 nM; IC50 (Dipeptidyl peptidase 4 [8]): 24 nM |
| CCOC(=O)N1CCN(C(=O)CC(C)(C)NCC(=O)N2C[C@@H](F)C[C@H]2C#N)CC1 |  |  | > 20000 | > 20000 | 63 |  |
| CC(C)(CC(=O)N1CCCCC1)NCC(=O)N1C[C@@H](F)C[C@H]1C#N | 86 | 74 | > 20000 | > 20000 | 27 | IC50 (Dipeptidyl peptidase 4 [7]): 14 nM |
| CC(C)(CC(=O)N1CCC(=O)CC1)NCC(=O)N1C[C@@H](F)C[C@H]1C#N |  |  | > 20000 | > 20000 | 26 |  |
| CC(C)(CC(=O)N1CCN(S(C)(=O)=O)CC1)NCC(=O)N1C[C@@H](F)C[C@H]1C#N | 64 | 7 | > 20000 | > 20000 | 24 | IC50 (Dipeptidyl peptidase 4 [7]): 15 nM |
| CC(C)(CC(=O)N1C2CCC1CC2)NCC(=O)N1C[C@@H](F)C[C@H]1C#N |  |  | > 20000 | > 20000 | 66 |  |
| CC(C)(CC(=O)N1CC[C@@H](O)C1)NCC(=O)N1CCC[C@H]1C#N |  |  | > 20000 | > 20000 | 180 |  |
| CC(C)(CC(=O)N1CCCC1)NCC(=O)N1CCC[C@H]1C#N |  |  | > 20000 | > 20000 |  |  |
| CC(C)(CC(=O)NC1CCCC1)NCC(=O)N1C[C@@H](F)C[C@H]1C#N | 81 | 60 | > 20000 | > 20000 | 29 |  |
| CC(C)(CC(=O)N1CCOCC1)NCC(=O)N1C[C@@H](F)C[C@H]1C#N | 89 | 59 | > 20000 | > 20000 | 20 | IC50 (Dipeptidyl peptidase 4 [7]): 13 nM; IC50 (Dipeptidyl peptidase 4 [8]): 14 nM |
| C#C[C@@H]1C[C@H](F)CN1C(=O)CC(C)(C)CC(=O)N[C@H]1C[C@@H]1c1cccc(Cl)c1 | 66 | 30 |  | > 20000 | 15 | IC50 (Dipeptidyl peptidase 4 [7]): 847 nM; IC50 (Dipeptidyl peptidase 4 [8]): 210 nM; IC50 (Dipeptidyl peptidase 2): > 100000 nM; inhibition (Dipeptidyl peptidase 9 [6]): 72%; IC50 (Prolyl endopeptidase FAP): > 20000 nM |
| C[C@@H]1CCCN1C(=O)CC(C)(C)NCC(=O)N1C[C@@H](F)C[C@H]1C#N | 75 | 48 | > 20000 | > 20000 | 32 |  |
| CC(C)(CC(=O)N1CC=CCC1)NCC(=O)N1C[C@@H](F)C[C@H]1C#N | 85 | 70 |  | > 20000 | 18 | inhibition (Dipeptidyl peptidase 9 [6]): 50% |
| CC(C)(CC(=O)N1CC[C@H](O)C1)NCC(=O)N1C[C@@H](F)C[C@H]1C#N |  |  | > 20000 | > 20000 | 50 |  |
